# Patent US10912741B2, “Prevention of liver cancer with safranal-based formulations” (United Arab Emirates University, priority 2019, dated 2021)
# Marks after values point to notes of the source that are not given here.
# Key:
# COX-2 = experiment: Immunohistochemical staining of liver sections, COX-2 positive cells; type: in vivo, albino Wistar rats; conditions: mean±SEM, 8 rats
# Procedure: (§1) The experimental hepatocarcinogenesis model was developed according to a protocol by Espandiaria et al. that was adapted for our purposes. To initiate and promote hepatocarcinogenesis, diethylnitrosamine (DEN) and 2-acetylaminofluorene (2-AAF) were used, respectively. For hepatocarcinogenesis initiation in this model, a single DEN dose (200 mg/kg b.wt.) dissolved in saline was injected intraperitoneally. After initiation, all rats underwent one period of 5-days fasting, as mitotic proliferative stimuli. To promote hepatocarcinogenesis, 2-acetylaminofluorene (2-AAF) was introduced in the form of six daily intragastric doses (30 mg/kg in 1% Tween 80); two weeks after DEN treatment.
# Safranal at doses of 25 mg/kg by weight (b.wt.) and 50 mg/kg b.wt, was administrated orally to rats. These doses have been reported to suppress chemically-induced oxidative damage in rats. A total of 40 adult male albino Wistar rats were randomly divided into […] (n=8) and were subjected to different treatments. Group 1 (control) was orally administered distilled water (5 ml/kg b.wt.) throughout the experimental duration and were injected with a single dose of saline. Group 2 (Safranal only) was subjected to a safranal dose (50 mg/kg b.wt.) through oral administration for the duration of the experimental period. Hepatocarcinogenesis was induced by DEN and promoted by 2-AAF, as reported previously, in group 3 (HCC). Rats in protective groups (groups 4-5) were treated with low/high doses of saffron-based safranal suspensions, at the beginning of promotion periods and continued for 12 weeks. The low dosage treatment with safranal consisted of 25 mg/kg b.wt., and the high dosage treatment consisted of 50 mg/kg b.wt. The experimental design is illustrated in FIG. 1.
# (§2) For immunohistochemical staining, mounted sections were immersed in sodium citrate buffer (0.1 M, pH 6) and placed in a water bath for 15 minutes to unmask antigen epitopes. […] Ten fields were randomly selected to quantify positive cells, in individual samples (400×). […]
# [1] = tested on: placental glutathione s-transferase (GST-p); experiment: Immunohistochemical staining of liver sections, GST-p positive foci; type: in vivo, albino Wistar rats
# Procedure: as §1
# (§3) Safranal at doses of 25 mg/kg by weight (b.wt.) and 50 mg/kg b.wt, was administrated orally to rats. These doses have been reported to suppress chemically-induced oxidative damage in rats. A total of 40 adult male albino Wistar rats were randomly divided into […] (n=8) and were subjected to different treatments. […]
# as §2
# p-TNF-R1 = experiment: Immunohistochemical staining of liver sections, p-TNF-R1 positive cells; type: in vivo, albino Wistar rats
# Procedure: as §1, §3, §2
# TNF-α = TNF-α level in serum by ELISA; type: in vivo, albino Wistar rats
# Procedure: as §1
# Safranal at doses of 25 mg/kg by weight (b.wt.) and 50 mg/kg b.wt, was administrated orally to rats. These doses have been reported to suppress chemically-induced oxidative damage in rats. A total of 40 adult male albino Wistar rats were randomly divided into […] (n=8) and were subjected to different treatments. Group 1 (control) was orally administered distilled water (5 ml/kg b.wt.) throughout the experimental duration and were injected with a single dose of saline. […]
# TNF-α level in serum was quantitatively measured using Enzyme-Linked Immunosorbent Assay (ELISA), according to the manufacturer instructions (ELISA kits (R&D Systems), Minnesota, USA. Results are presented in picograms/milligrams.
# [2] = tested on: caspase-3 and -7 in HepG2 cells; experiment: Caspase-3 and -7 assay (Caspase-Glo 3/7); type: cell-based, human; conditions: 1 mM, 48 hours
# Procedure: (§4) HepG2, were cultured in RPMI 1640 medium (HyClone, USA) and 1% of 100 U/ml penicillin and 100 ug/ml streptomycin (Sigma, USA) supplemented with 10% fetal bovine serum (Sigma, USA) at 37° C. in a humidified 5% CO2 atmosphere. Cells were sub-cultured each 4-6 days using trypsin 0.25% (Hyclone, USA).
# HepG2 cells were seeded in 96-well plates at the density of 10000 cells/well and grown in 100 uL of complete growth medium. Complete growth medium was replaced by serum-free medium after cells were allowed to attach for 24 hours; after which cells were incubated for at least 12 hours. Cells were incubated for 48 hours after treatment with various concentrations of safranal (1 mM, 0.7 mM, 0.5 mM) prepared from 20 mM stock solution. After incubation period, caspase-3 and -7 activities were measured using Caspase-Glo 3/7 luminescent assay kit according to manufacturer's instruction (Promega, USA).
# [3] = tested on: IL-8 secretion by HepG2 cells; experiment: IL-8 ELISA of supernatant of safranal-treated cells; type: cell-based, human; conditions: as early as 6 hrs
# Procedure: as §4
# (§5) In 100 mm plates, HepG2 cells were seeded at a density of 2×10^4 in complete growth medium. Cells were allowed to attach for 24 hours, after which complete growth medium was replaced by serum-free medium. Cells were treated with safranal at a concentration of 1 mM (20 mM stock). Plates were incubated for 6, 12, 24, and 48 hours in a humidified 5% CO2 atmosphere at 37° C. At indicated times, 1 mL of cell supernatant was obtained from each plate and was stored at −80° C. for further analysis by ELISA. After which whole cell lysates were prepared. Bicinchoninic acid (BCA) assay (Sigma-Aldrich, USA) was used to determine concentration of protein. Thirty μg of protein were loaded onto 10% SDS polyacrylamide electrophoresis gels. […]
# Supernatant of safranal-treated cells were used to investigate the effect of safranal on IL-8 secretion level. […] Absorbance was recorded at 450 nm with background subtraction at 570 nm using a microplate reader (Biotek, Winooski, Vt., USA).
# p-IkB in HepG2 cells = experiment: Western blotting, p-IkB; type: cell-based, human; conditions: starting at 24 hours of safranal treatment (1 mM)
# Procedure: as §4
# as §5, with “gels. The gels were transferred onto nitrocellulose membranes prior to immunodetection processing with anti-p-IkB-alpha, anti-H2AX (Cell Signaling Technology, USA), and with anti-rabbit IgG peroxidase conjugated secondary antibodies.” for “gels.”
structure (smiles),measurement,setting,value
"CC1=C(C=O)C(C)(C)CC=C1 [Safranal, 2,6,6-trimethylcyclohexa-1,3-diene-1-carbaldehyde]",COX-2 positive cells,"COX-2; HCC (DEN/2-AAF) rats + safranal high dose 50 mg/kg b.wt. oral, 12 weeks",6.91 ± 1.09^a&b positive cells/field
same,COX-2 positive cells,"COX-2; HCC (DEN/2-AAF) rats + safranal low dose 25 mg/kg b.wt. oral, 12 weeks",2.15 ± 0.38^b positive cells/field
same,COX-2 positive cells,"COX-2; safranal alone 50 mg/kg b.wt. oral, no DEN (group 2)",0.58 ± 0.04 positive cells/field
same,number of GST-p positive foci and area/cm^2,"[1]; safranal treatment after DEN exposure (groups 4-5, 25/50 mg/kg b.wt.)",significantly reduced the number of GST-p positive foci and the area/cm^2
same,GST-p positive foci,[1]; safranal treatment alone (group 2),did not induce formation of such foci
same,number of p-TNF-R1 positive cells,"p-TNF-R1; low/high doses of safranal, DEN-2-AAF-treated animals (groups 4-5), vs HCC group",highly significant decrease
same,number of p-TNF-R1 positive cells,"p-TNF-R1; safranal alone, compared to control group",change of no significance
same,TNF-α level in serum,TNF-α; low/high doses of safranal after DEN exposure (groups 4-5),significant reduction in TNF-α expression
same,TNF-α level in serum,"TNF-α; safranal alone (group 2), vs control group",no significant impact
same,caspase-3 and -7 activities,[2],significant increase in caspase-3 and -7 activities
same,IL-8 secretion,[3],dramatic decrease in IL-8 secretion
same,level of p-IkB protein,p-IkB in HepG2 cells,transiently decreased
